Some targets named below: Carbonic anhydrase 9 (Homo sapiens, UniProt Q16790); Carbonic anhydrase 2 (Homo sapiens, UniProt P00918); Carbonic anhydrase 7 (Homo sapiens, UniProt P43166); Carbonic anhydrase 14 (Homo sapiens, UniProt Q9ULX7); Carbonic anhydrase 1 (Homo sapiens, UniProt P00915).

Sequence of Carbonic anhydrase 7 (P43166 whole entry): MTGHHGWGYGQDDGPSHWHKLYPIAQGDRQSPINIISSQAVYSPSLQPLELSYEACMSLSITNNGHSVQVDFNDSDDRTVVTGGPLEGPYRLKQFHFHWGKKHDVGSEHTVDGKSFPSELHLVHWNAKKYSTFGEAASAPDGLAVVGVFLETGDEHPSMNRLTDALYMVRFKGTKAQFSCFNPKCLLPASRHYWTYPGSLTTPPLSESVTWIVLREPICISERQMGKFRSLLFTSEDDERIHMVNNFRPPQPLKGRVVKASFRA
Sequence of Carbonic anhydrase 1 (P00915 whole entry): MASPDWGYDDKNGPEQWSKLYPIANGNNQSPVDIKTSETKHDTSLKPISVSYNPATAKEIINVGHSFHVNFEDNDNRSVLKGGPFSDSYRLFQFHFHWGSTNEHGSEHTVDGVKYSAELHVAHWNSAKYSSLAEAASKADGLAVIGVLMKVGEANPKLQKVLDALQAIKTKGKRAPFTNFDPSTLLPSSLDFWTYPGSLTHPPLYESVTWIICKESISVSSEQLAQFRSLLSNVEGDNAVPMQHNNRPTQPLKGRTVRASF
Sequence of Carbonic anhydrase 14 (Q9ULX7 whole entry): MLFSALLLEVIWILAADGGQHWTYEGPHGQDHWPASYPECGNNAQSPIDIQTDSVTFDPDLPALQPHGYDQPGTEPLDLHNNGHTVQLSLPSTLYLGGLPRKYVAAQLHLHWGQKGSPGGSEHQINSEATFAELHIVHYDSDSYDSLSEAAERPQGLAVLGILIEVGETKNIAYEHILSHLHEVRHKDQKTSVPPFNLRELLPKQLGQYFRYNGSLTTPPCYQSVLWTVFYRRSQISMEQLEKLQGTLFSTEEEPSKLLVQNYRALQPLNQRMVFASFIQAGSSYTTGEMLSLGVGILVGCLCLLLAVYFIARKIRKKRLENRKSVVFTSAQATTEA

Take `COc1ccc(CCNC(=O)c2ccc(S(N)(=O)=O)cc2)cc1OC`: on Carbonic anhydrase 9, the affinity, expressed as Ki, was 0.0038 µM. This lies in the single-digit nanomolar range.

For the compound `COc1cc2c(cc1OC)C(c1ccc(S(N)(=O)=O)cc1)=NCC2`, at Carbonic anhydrase 9, the affinity corresponds to a Ki of 0.21 µM.

On Carbonic anhydrase 9, `COc1cc2c(cc1OC)C(c1ccc(S(N)(=O)=O)cc1)NCC2` (configuration not stated) displayed a Ki of 0.13 µM.

`COc1cc2c(cc1OC)C(c1ccc(S(N)(=O)=O)cc1)N(S(N)(=O)=O)CC2` (configuration not stated) showed a Ki on Carbonic anhydrase 9 of 0.076 µM.

Compound `COc1cccc(CCNC(=O)c2ccc(S(N)(=O)=O)cc2)c1` gave an inhibition constant (Ki) at Carbonic anhydrase 9 of 0.0065 µM.

In the case of `CCOc1cccc(CCNC(=O)c2ccc(S(N)(=O)=O)cc2)c1`, at Carbonic anhydrase 9, the affinity, expressed as Ki, was 0.0081 µM.

Consider `CCCOc1cccc(CCNC(=O)c2ccc(S(N)(=O)=O)cc2)c1`, for which the affinity at Carbonic anhydrase 9 corresponds to a Ki of 0.0083 µM.

Compound `NS(=O)(=O)c1ccc(C(=O)NCCc2cccc(O)c2)cc1` had a Ki on Carbonic anhydrase 9 of 0.0417 µM.

`COc1ccc2c(c1)CCN=C2c1ccc(S(N)(=O)=O)cc1` gave a Ki at Carbonic anhydrase 9 of 0.0183 µM.

For `CCOc1ccc2c(c1)CCN=C2c1ccc(S(N)(=O)=O)cc1`, the Ki came to 0.0875 µM at Carbonic anhydrase 2; 0.0065 µM at Carbonic anhydrase 7; 0.0072 µM on Carbonic anhydrase 9; 0.0179 µM on Carbonic anhydrase 14; 1.05 µM on Carbonic anhydrase 1.

Turning to `CCCOc1ccc2c(c1)CCN=C2c1ccc(S(N)(=O)=O)cc1`, the inhibitory constant (Ki) on Carbonic anhydrase 2 was determined as 0.0088 µM; at Carbonic anhydrase 7 it was 0.008 µM; on Carbonic anhydrase 9 it was 0.0161 µM; on Carbonic anhydrase 14, 0.0087 µM; on Carbonic anhydrase 1, 0.0831 µM.

With `NS(=O)(=O)c1ccc(C2=NCCc3cc(O)ccc32)cc1`, on Carbonic anhydrase 9, the Ki amounted to 0.0515 µM. That is a double-digit nanomolar value.

For the compound `NS(=O)(=O)c1ccc(C2NCCc3cc(O)ccc32)cc1` (configuration not stated), at Carbonic anhydrase 9, affinity was put at a Ki of 0.0683 µM. The Ki values of the last two compounds are within 1.5-fold of each other.

`COc1ccc2c(c1)CCN(S(N)(=O)=O)C2c1ccc(S(N)(=O)=O)cc1` (configuration not stated) gave a Ki on Carbonic anhydrase 9 of 0.0065 µM.

On to `CCOc1ccc2c(c1)CCN(S(N)(=O)=O)C2c1ccc(S(N)(=O)=O)cc1` (configuration not stated), for which affinity on Carbonic anhydrase 9 was put at a Ki of 0.0521 µM.

On Carbonic anhydrase 9, `NS(=O)(=O)c1ccc(C2c3ccc(O)cc3CCN2S(N)(=O)=O)cc1` (configuration not stated) returned a Ki of 0.0079 µM.

In turn, `COc1ccc2c(c1)CCNC2c1ccc(S(N)(=O)=O)cc1` (racemic) returned a Ki at Carbonic anhydrase 9 of 0.0154 µM. Compared with the last compound, the Ki is about 1.9-fold higher.

In turn, `CCOc1ccc2c(c1)CCNC2c1ccc(S(N)(=O)=O)cc1` (racemic) registered a Ki at Carbonic anhydrase 9 of 0.0092 µM. This Ki lies about 1.7-fold lower than the previous one.

For `CCCOc1ccc2c(c1)CCNC2c1ccc(S(N)(=O)=O)cc1` (racemic), the affinity at Carbonic anhydrase 9, expressed as Ki, was 0.0092 µM.

The term Ki denotes a dissociation constant, usually derived from enzyme kinetics or from competition with a known ligand.
